In test [1] the test system is A549. Put plainly: Photodynamic cytotoxicity against human A549 cells assessed as cell growth inhibition upon light irradiation by WST assay. It is filed as functional, cell-based.
Test [2] deals with A549. Kind of test: Cytotoxicity against human A549 cells assessed as cell growth inhibition by WST assay. It is filed as functional, cell-based.
In test [3] the test system is HeLa. Put plainly: Cytotoxicity against human HeLa cells assessed as cell growth inhibition incubated for […] followed by fresh medium replacement without compound and further incubated for 44 hrs under dark condition by resazurin based fluorimetry. The test is classed as functional. (In general: Resazurin is reduced to fluorescent resorufin, in cell work by metabolically active cells.)

Test [4] relates to HeLa. Kind of test: Photodynamic cytotoxicity against human HeLa cells assessed as cell growth inhibition incubated for 4 hrs followed by fresh medium replacement without compound upon 6.95 J/cm2 light irradiation for 15 mins and further incubated for 44 hrs by resazurin based fluorimetry. The test is classed as functional. The following applies: light or radiation study.
For test [5], the system named is UMUC3. Put plainly: Photodynamic cytotoxicity against human UMUC3 cells assessed as cell growth inhibition upon light irradiation. It is filed as functional, cell-based. To be noted: UMUC3, light or radiation study.
The subject of test [6] is FaDu. Kind of test: Photodynamic cytotoxicity against human FaDu cells assessed as cell growth inhibition upon light irradiation. The test is classed as functional, cell-based. The following applies: light or radiation study.
Test [7] deals with HeLa. Kind of test: Photodynamic cytotoxicity against human HeLa cells assessed as cell growth inhibition incubated for 24 hrs followed by medium replacement without compound upon 1 J/cm2 light irradiation and measured after 24 hrs by MTT assay. It is filed as functional, cell-based.
Test [8] deals with HeLa. Kind of test: Cytotoxicity against human HeLa cells assessed as cell growth inhibition incubated for 24 hrs by MTT assay. It is filed as functional, cell-based.
Test [9] has as its system NCI-H460. Put plainly: Photodynamic cytotoxicity against human H460M2 cells assessed as cell growth inhibition incubated for 24 hrs followed by medium replacement without compound upon 1 J/cm2 light irradiation and measured after 24 hrs by MTT assay. It is filed as functional, cell-based.
Test [10] relates to NCI-H460. Kind of test: Cytotoxicity against human H460M2 cells assessed as cell growth inhibition incubated for 24 hrs by MTT assay. It is filed as functional, cell-based. A general note: Tetrazolium dyes change colour on reduction, which living cells bring about.
The test system of test [11] is HBL-100. Put plainly: Photodynamic cytotoxicity against human HBL-100 cells assessed as cell growth inhibition incubated for 24 hrs followed by medium replacement without compound upon 1 J/cm2 light irradiation and measured after 24 hrs by MTT assay. It is filed as functional, cell-based.
The test system of test [12] is HBL-100. Kind of test: Photodynamic cytotoxicity against human HBL-100 cells assessed as cell growth inhibition incubated for 24 hrs by MTT assay. The test is classed as functional, cell-based.
The subject of test [13] is UMUC3. Put plainly: Photodynamic cytotoxicity against human UMUC3 cells assessed as cell growth inhibition upon 1 J/cm2 light irradiation. The test is classed as functional, cell-based. To be noted: UMUC3, light or radiation study.
Test [14] deals with FaDu. Kind of test: Photodynamic cytotoxicity against human FaDu cells assessed as cell growth inhibition upon 1 J/cm2 light irradiation. It is filed as functional, cell-based. To be noted: light or radiation study.
For test [15], the system named is A549. Kind of test: Photodynamic cytotoxicity against human A549 cells assessed as cell growth inhibition upon light irradiation. The following applies: A549, light or radiation study. It is filed as functional, cell-based.
In test [16] the test system is A549. Put plainly: Cytotoxicity against human A549 cells assessed as cell growth inhibition. It is filed as functional, cell-based.
Setting [17] is: Homo sapiens, A549, light or radiation study.

The text below walks through data of ChEMBL document CHEMBL5136994, “Conjugates of Porphyrinoid-Based Photosensitizers with Cytotoxic Drugs: Current Progress and Future Directions toward Selective Photodynamic Therapy” (J Med Chem, 2022).

As usually defined, the IC50 is the concentration needed to halve the response being measured. With `C[n+]1ccc(-c2c3nc(c(-c4cc[n+](C)cc4)c4ccc([nH]4)c(-c4cc[n+](C)cc4)c4nc(c(-c5cc[n+](C)cc5)c5ccc2[nH]5)C=C4)C=C3)cc1`, the IC50 in test [1] (setting [17]) is 300 nM; in test [2] (Homo sapiens, A549) it was greater than 100000 nM.

For `C1=Cc2nc1c(-c1ccncc1)c1ccc([nH]1)c(-c1ccncc1)c1nc(c(-c3ccncc3)c3ccc([nH]3)c2-c2ccncc2)C=C1`, the half-inhibitory concentration (IC50) in test [3] is greater than 100000 nM; in [4], 5800 nM.

Consider `CCCCCCOC(C)C1=C(C)c2cc3nc(c4c5[nH]c(cc6[nH]c(cc1n2)c(C)c6CC)c(C)c5C(=O)C4)[C@@H](CCC(=O)O)[C@@H]3C` (stereo partly drawn), for which the IC50 in test [5] turned out to be 68 nM; in test [6], 43 nM.

In the case of `C[n+]1ccc(-c2c3nc(c(-c4cc[n+](C)cc4)c4ccc([nH]4)c(-c4cc[n+](C)cc4)c4nc(c(-c5ccc(OCc6cn(CCc7c8[nH]c9ccccc9c8cc[n+]7C)nn6)cc5)c5ccc2[nH]5)C=C4)C=C3)cc1`, the IC50 was 60 nM in test [1] (a549) and greater than 100000 nM in [2] (a549).

As for `C[n+]1ccc(-c2c3nc(c(-c4cc[n+](C)cc4)c4ccc([nH]4)c(-c4cc[n+](C)cc4)c4nc(c(-c5ccc(C(=O)NCCOCCOCCNC(=O)CN6CCNCCNCC6)cc5)c5ccc2[nH]5)C=C4)C=C3)cc1`, the IC50 in [7], in [8], in test [9], in [10], in [11] and in [12] was greater than 100000 nM each time.

For the compound `CCc1c(C)c2cc3nc(cc4nc(c5c6[nH]c(cc1[nH]2)c(C)c6C(=O)C5)[C@@H](CCC(=O)OC)[C@@H]4C)C(C)=C3C(C)OCc1ccc(C#Cc2cccc(Nc3ncnc4cc(OCCOC)c(OCCOC)cc34)c2)cc1` (stereo partly drawn), the IC50 in [13] amounted to 21 nM; in test [14] it was 60 nM.

As to `CCCCCCOC(C)C1=C(C)c2cc3nc(c4c5[nH]c(cc6[nH]c(cc1n2)c(C)c6CC)c(C)c5C(=O)C4)[C@@H](CCC(=O)NCCCCn1cc(-c2cccc(Nc4ncnc5cc(OCCOC)c(OCCOC)cc45)c2)nn1)[C@@H]3C` (stereo partly drawn), the IC50 is 20 nM in test [13] and 18 nM in test [14].

Consider `CCc1c(C)c2cc3nc(cc4nc(c5c6[nH]c(cc1[nH]2)c(C)c6C(=O)C5)[C@@H](CCC(=O)O)[C@@H]4C)C(C)=C3C(C)OCc1cccc(C#Cc2cccc(Nc3ncnc4cc(OCCOC)c(OCCOC)cc34)c2)c1` (stereo partly drawn), for which the IC50 in test [13] stood at 54 nM; in test [14] it was 31 nM.

`CCc1c(C)c2cc3nc(cc4nc(c5c6[nH]c(cc1[nH]2)c(C)c6C(=O)C5)[C@@H](CCC(=O)OC)[C@@H]4C)C(C)=C3COCc1cccc(C#Cc2cccc(Nc3ncnc4cc(OCCOC)c(OCCOC)cc34)c2)c1`: the IC50 in [13] worked out at 76 nM; in test [14], 23 nM.

`C1=Cc2nc1c(-c1ccncc1)c1ccc([nH]1)c(-c1ccncc1)c1nc(c(-c3ccc(OCc4cn(CCc5nccc6c5[nH]c5ccccc56)nn4)cc3)c3ccc([nH]3)c2-c2ccncc2)C=C1`: the IC50 was 43100 nM in test [1] (setting [17]) and greater than 100000 nM in test [2] (Homo sapiens, A549).

Consider `CCc1c(C)c2cc3nc(cc4nc(c5c6[nH]c(cc1[nH]2)c(C)c6C(=O)C5)[C@@H](CCC(=O)OC)[C@@H]4C)C(C)=C3C(C)OCc1cccc(C#Cc2cccc(Nc3ncnc4cc(OCCOC)c(OCCOC)cc34)c2)c1` (stereo partly drawn), for which the IC50 in [13] stood at 59 nM; in test [14], 35 nM.

As to `C1=Cc2nc1c(-c1ccccc1)c1ccc([nH]1)c(-c1ccccc1)c1nc(c(-c3ccc(OCc4cn(CC[n+]5c6ccccc6cc6[nH]c7ccccc7c65)nn4)cc3)c3ccc([nH]3)c2-c2ccccc2)C=C1`, the IC50 came to 2500 nM in test [15] and 33600 nM in test [16].
